Results from US11578049B2, “Benzoic acid compound and method for preparing the same” (Henan Genuine Biotech Co., Ltd., priority 2018, dated 2023).
Several values for one entry are separate records, joined by “and”; a condition that tells them apart may be missing. Identical values can stand only once.

Assays:
[1] = Metabolic stability measured in human liver microsomes; conditions: for half-life at 2 μg/mL: human, pH 7.4; for t1/2 (elimination half-life): human liver microsomes 1.0 mg/ml, compound 2 μg/mL, NADPH 2 mM, pH 7.4, 37° C.
[2] = tested on: rats exposed to cerebral ischemia and reperfusion; assay: Cerebral blood flow in rats exposed to cerebral ischemia and reperfusion (tMCAO), laser Doppler; format: in vivo, Sprague Dawley (SD) rats; conditions: for Reperfusion/Postoperative (cerebral blood flow recovery): 2 hours ischemia, 3 mg/kg iv immediately after reperfusion; for Postoperative/Preoperative (cerebral blood flow): blood flow immediately after initiation of ischemia relative to before the operation, drug 3 mg/kg iv given immediately after reperfusion
Protocol: (§1) 1.2 Experimental procedure: Male Sprague Dawley (SD) rats was subjected to operation after experimental adaption for 5-7 days, with a weight of 200-250 g. The rats were anesthetized by intraperitoneal injection of 0.35 mL/100 g 10% chloral hydrate, and positioned on a temperature-controlled, operating surface. The common carotid artery was isolated from surrounding nerves to the bifurication between the external carotid artery and the internal carotid artery. The external carotid artery was then isolated. A sterile middle cerebral artery occlusion (MCAO) suture was advanced through external carotid artery into the internal carotid artery (about 18 mm±0.5 mm from the point of the carotid bifurication), effectively occluding the middle cerebral artery. The suture was withdrawn after 2 hours ischemic period to simulate clinical reperfusion. All rats were scored according to Longa scoring system, in which the rats with a total score less than 1 were withdrawn. The rats were kept on a heating blanket and allowed to recover from anesthesia. A neurobehavioral examination was performed at 24 h after awakening. Blood was drawn from each rat under anesthesia, collected in a tube containing K2-EDTA as anticoagulant for stabilizing the blood samples, centrifuged to separate supernatant from precipitate, and stored at […]. Then the rats were euthanized. The brains were cut into slices, stained with 2,3,5-triphenyltetrazolium chloride (TTC), and used to determine the infarct area. The experiment was complete within 3 days, with 3-4 rats per group daily.
1.3 Intraoperative monitoring: Transcranial measurement of cerebral blood flow was made using […] at three points, namely before the operation, immediately after the initiation of ischemia, and immediately after reperfusion.
(§2) 1.7 Drug preparation: The drugs to be tested were accurately weighed, dissolved in physiological saline to give a final concentration of 1.5 mg/mL.
(§3) 1.8 Administration method: The drugs were removed from the refrigerator and […] to room temperature before the rats were dosed. The dosing volume was 2 mL/kg.
(§4) All data was imported into an Excel worksheet, and expressed as mean±standard error of the mean. Statistical significance was determined by one-way ANOVA with Dunnett's multiple comparison test (*P<0.05, **P<0.01).

[3] = Physical properties of the salts (water absorption); format: physicochemical; conditions: solid salt
Excerpt: 5. The type of the salt of the compound 5 affects its physical properties. […] In addition, the excess alkali leads to the closed-loop reaction between hydroxyl group and fluorine atom. Potassium hydroxide contacts the compound 12 to yield a potassium salt which is not a solid. […] Therefore, high-purity of potassium salt and sodium salt products are not easy to obtain in this disclosure, which is unfavorable to large-scale production. Therefore, the following compounds are also included in the present invention: […]

in vivo = conditions: mouse
in vitro = conditions: human, microsomes, pH 7.4
[4] = tested on: rats exposed to cerebral ischemia and reperfusion; assay: Infarct area of rats exposed to cerebral ischemia and reperfusion (tMCAO), TTC staining; format: in vivo, Sprague Dawley (SD) rats; conditions: 3 mg/kg iv immediately after reperfusion; for Cerebral infarction ratio: TTC, infarct area / total brain area; for Percentage inhibition of cerebral infarction: versus model group
Protocol: as §1, §2, §3
1.9.2 Cerebral infarction ratio: The rats were euthanized with chloral hydrate (330 mg/kg anesthesia), given by CO2 inhalation, and blood was drawn by cardiac puncture. The brains were removed from the skull and cut into 2 mm coronal slices using a rat brain matrix. Each slice was stained with 1% TTC at 37° C. for 5 minutes, protected from light, and were photographed. The ratio of infarct area was then determined using an image analysis software Image Pro Plus 6.0. The infarct areas were summed and divided by total brain area to yield the ratio of infarct area.
as §4

mice = conditions: for median lethal dose: acute toxicity test
[5] = text: recovery relative to preoperative, 3 mg/kg

Structure (SMILES): O=C([O-])c1cc(Br)ccc1C(O)CCC1CC1.[Na+] (centres unmarked) [Compound 14]
- half-life at 2 μg/mL ([1]; human liver microsomes): 146 min
- Reperfusion/Postoperative (cerebral blood flow recovery) ([2]; recovery relative to preoperative): 88.3%
- Postoperative/Preoperative (cerebral blood flow) [2]: 13.5%

Structure (SMILES): O=C(O)c1cc(Br)ccc1C(O)CCCCF (centres unmarked) [Compound 17]
- water absorption in the air [3]: no water absorption
- LD50 (in vivo; intravenous): 1100 mg/kg
- half-life at 2 μg/mL (in vitro): 1160 min
- Cerebral infarction ratio [4]: 11.8%
- Percentage inhibition of cerebral infarction [4]: 77.4%
- Reperfusion/Postoperative (cerebral blood flow recovery) [2, 5]: 95.6% and 95.3%
- Postoperative/Preoperative (cerebral blood flow) [2]: 15.5%

Structure (SMILES): CCCCC(O)c1ccccc1C(=O)[O-].[K+] (centres unmarked) [Potassium butylphthalide]
- t1/2 (elimination half-life) ([1]; listed as Potassium Butylphthalide): <1 h
- t1/2 (elimination half-life) ([1]; listed as potassium butylphthalide): less than 1 h
- Cerebral infarction ratio ([4]; 3 mg/kg): 37.5%
- Cerebral infarction ratio ([4]; listed as potassium butylphthalide, 3 mg/kg): 37.5%
- Percentage inhibition of cerebral infarction ([4]; 3 mg/kg): 26.4%
- Percentage inhibition of cerebral infarction ([4]; listed as butylphthalide potassium, 3 mg/kg): 26.4%
- median lethal dose (mice): 373 mg
- LD50 (median lethal dose) (mice; injected via tail vein): 373 mg/kg

Structure (SMILES): O=C([O-])c1cc(Br)ccc1C(O)CCCCF.[Na+] (centres unmarked) [Compound 15]
- water absorption in the air [3]: easy to absorb water in the air
- half-life at 2 μg/mL ([1]; microsomes): 1150 min
- LD50 (in vivo): 1040 mg/kg
- Cerebral infarction ratio ([4]; 3 mg/kg): 12.0%
- Cerebral infarction ratio ([4]; listed as compound 15, 3 mg/kg): 12.0%
- Percentage inhibition of cerebral infarction ([4]; 3 mg/kg): 75.3%
- Percentage inhibition of cerebral infarction ([4]; listed as compound 15, 3 mg/kg): 75.3%
- Reperfusion/Postoperative (cerebral blood flow recovery) [2, 5]: 95.6%
- Reperfusion/Postoperative (cerebral blood flow recovery) ([2]; text: recovery relative to preoperative, listed as compound 15, 3 mg/kg): 95.3% and 95.6%
- Postoperative/Preoperative (cerebral blood flow) [2]: 16.8%
- median lethal dose (mice): 1036 mg
